Earlier results, collected in US20070259053A1, “Inhibition of nephrotoxicity induced by Trasylol® and like agents” (priority 2006, published 2007).
Where two headings read alike, the source gives them in different places.

Assays:
[1] = test system: mercury induced acute renal failure; conditions: in vivo
[2] = test system: gentamicin induced renal toxic effects
[3] = test system: renal accumulation of lysozyme; conditions: microinfusion experiments
[4] = test system: renal accumulation of gentamicin
BBM = conditions: for effect on binding of albumins of increased isoelectric points to BBM: b13: pH 6.5, pI 8.5 albumins
[5] = test system: isolated renal brush border membranes; conditions: for effect on binding of gentamicin to isolated renal brush border membranes: isolated BBM
[6] = test system: toxic effects of spermine and gentamicin
[7] = test system: renal toxic effects of cisplatin; conditions: bird
[8] = test system: renal toxic effects of cisplatin; conditions: rat
kidney = conditions: noted by autoradiography

Q: With `Clc1cccc(Cl)c1N=C1NCCN1` [Clonidine] as the compound, how does the “effect on mercury induced acute renal failure” value [1] read?
A: protected

Q: And the “effect on gentamicin induced renal toxic effects” value ([2]; rat kidney)?
A: inhibited

Q: Which “effect on renal accumulation of lysozyme” value [3] does the source give for `N=C(N)NCCC[C@H](N)C(=O)O` [L-arginine] here?
A: inhibited

Q: What does the source list for `C[n+]1cccc(C(N)=O)c1` [N′-methylnicotinamide]?
A: effect on renal accumulation of gentamicin ([4]; rats): inhibited; effect on urinary excretion of gentamicin ([4]; rats): increased

Q: With `[Cd]` [cadmium] as the compound, how does the “effect on gentamicin accumulation in the renal cortex” value ([4]; cadmium treated animals) read?
A: reduced

Q: For `[Ca+2]` [calcium], which “effect on binding of lysozyme to BBM” value (BBM) is on record?
A: decreased

Q: And the “effect on binding of albumins of increased isoelectric points to BBM” value (BBM)?
A: decreased

Q: What about the “effect on binding of albumins of increased isoelectric points to BBM” value (BBM; listed as Ca^++) of the same compound?
A: inhibited

Q: And the “effect on binding of lysozyme to BBM” value (BBM; listed as Ca^++)?
A: inhibited

Q: And the “effect on binding of gentamicin to isolated renal brush border membranes” value [5]?
A: competitive inhibitor

Q: Which results are given for `N.N.[Cl][Pt][Cl]` [cisplatin]?
A: effect on uptake of TEA (mouse kidney): inhibited; effect on uptake of p-aminohipputate (mouse kidney): inhibited; effect on transport of N′-methylnicotinamide into vesicles of BBM (vesicles of BBM): inhibited; effect on transport of tetraethylamonium (TEA) into vesicles of BBM (vesicles of BBM): inhibited

Q: With `NCCCC[C@H](N)C(=O)O` [lysine] as the compound, how does the “effect on renal accumulation of lysozyme” value [3] read?
A: inhibited

Q: And the “effect with the renal toxic effects of gentamicin” value ([2]; given with gentamicin)?
A: additive effect

Q: For `Cc1ncc(COP(=O)(O)O)c(C=O)c1O` [pyridoxal 5′-phsophate, pyridoxal 5′-phosphate], which “effect on toxic effects of gentamicin” value ([6]; in vivo) is on record?
A: inhibited

Q: What about the “effect on toxic effects of spermine” value ([6]; positively charged renal toxin spermine) of the same compound?
A: inhibited

Q: Which results are given for `C=C[C@H]1C[N@@]2CC[C@H]1C[C@H]2[C@H](O)c1ccnc2ccc(OC)cc12` [quinine]?
A: effect on renal toxic effects of cisplatin [7]: provided protection; effect on renal toxic effects of cisplatin [8]: provided protection

Q: Which results are given for `NCCCNCCCCNCCCN` [spermine]?
A: effect on renal accumulation of lysozyme [3]: inhibited; effect on uptake of gentamicin by renal tubular BBM ([5]; renal tubular BBM): inhibited

Q: Which “effect on renal accumulation of lysozyme” value [3] does the source give for Myoglobin here?
A: without effect

Q: Which results are given for aprotinin?
A: time after administration at which level peaked in the kidney (kidney): 72 h; effect on renal absorption of gentamicin ([4]; in vivo): did not unambiguously inhibit; effect on binding of gentamicin to isolated renal brush border membranes [5]: inhibited

Q: Which “effect on renal accumulation of lysozyme” value [3] does the source give for cytochrome C here?
A: inhibited

Q: For polylycine, which “effect on acute toxic effects of whole animal nephrotoxicity (gentamicin)” value ([2]; whole animal) is on record?
A: lessened

Q: What about the “effect on binding of gentamicin to isolated renal brush border membranes” value [5] of the same compound?
A: inhibited

Q: Which “effect on renal accumulation of lysozyme” value [3] does the source give for ribonuclease here?
A: inhibited

Q: With tetralysine as the compound, how does the “effect on uptake of gentamicin in rat renal cortex” value ([4]; rat renal cortex) read?
A: inhibited
